Reference: patent publication US7288407B2, “Stable cytochrome P450 24 (CYP24) expressing cell line and methods and uses thereof” (Cytochroma, Inc., priority 2002, dated 2007)

Biological target: T1, CYP24 (Homo sapiens, UniProt Q07973)
T1 construct: The full-length CYP24 cDNA was amplified using one-step RT-PCR kit; expressed in transfected cells
T1 sequence (Q07973 36-514): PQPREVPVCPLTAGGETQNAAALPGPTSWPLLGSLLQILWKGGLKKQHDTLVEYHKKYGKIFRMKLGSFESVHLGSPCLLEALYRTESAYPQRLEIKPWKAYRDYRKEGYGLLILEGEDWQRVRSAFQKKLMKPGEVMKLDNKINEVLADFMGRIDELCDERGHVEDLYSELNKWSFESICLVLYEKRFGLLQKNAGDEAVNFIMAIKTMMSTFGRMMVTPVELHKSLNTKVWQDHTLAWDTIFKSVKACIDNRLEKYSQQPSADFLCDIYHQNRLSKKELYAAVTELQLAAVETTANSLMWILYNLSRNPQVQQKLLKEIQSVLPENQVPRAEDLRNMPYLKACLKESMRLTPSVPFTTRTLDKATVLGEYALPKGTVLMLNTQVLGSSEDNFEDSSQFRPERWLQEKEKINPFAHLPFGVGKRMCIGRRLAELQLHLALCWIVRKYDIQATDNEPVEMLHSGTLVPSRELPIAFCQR
Experiment: CYP24 enzyme assay using stable CYP24-V79 cells
Type: cell-based
Details: Bligh-Dyer extraction, organic phase from 3 hours analyzed by HPLC
Procedure: CYP24/V79 cells were suspended, counted, seeded on well plates and extracted using the Bligh-Dyer extraction method. […] To induce cells, media was removed and the cells washed with 1× PBS buffer. […] Next, a cell suspension was prepared at the day of assay by removing the medium and washing the cell with PBS. 2 ml tripsin/EDTA was added to the plate which was kept in 37° C. for 5 min. Next, 3 ml EDTA medium+1% FCS was added followed by transfer to a 50 ml tube. The plate was washed with 5 ml PBS and mixed. The mix was centrifuged (2,000 rpm, 5 min) and the suspended cells pelleted in DMEM medium+1% BSA. […] About 5 mL 1× PBS buffer was added to collect cells from the plate and then placed in a 50 mL tube followed by repetition with second cell line. About 5 mL 1× PBS buffer was added to further wash the plate and added to the original 50 mL tube. Tubes were centrifuged (2,000 rpm/800 g for 6 minutes) and the supernatant removed. […] The cells were counted via hemocytometer and density adjusted to 250,000 cells/150 μL (1.67 million/1 mL) and then 150 μL added to appropriately labeled wells of 48-well plate. […] The cells were counted and cell density was adjusted to 500,000/150 μL. […] The plate is counted in a scintillation counter. Enzyme activity was then calculated.

Compound: CC[C@H]1OC(=O)[C@H](C)[C@@H](O[C@H]2C[C@@](C)(OC)[C@@H](O)[C@H](C)O2)[C@H](C)[C@@H](O[C@@H]2O[C@H](C)C[C@H](N(C)C)[C@H]2O)[C@](C)(O)C[C@@H](C)C(=O)[C@H](C)[C@@H](O)[C@]1(C)O [erythromycin]
- effect on CYP24 activity (inhibitor/activator): inhibitors
